Source: article PMC8331687 (ACS chemical biology, 2020)

Biological target: T1, ObiH (Pseudomonas fluorescens, UniProt A0A1X9LWZ7)
T1 sequence (A0A1X9LWZ7 1-440): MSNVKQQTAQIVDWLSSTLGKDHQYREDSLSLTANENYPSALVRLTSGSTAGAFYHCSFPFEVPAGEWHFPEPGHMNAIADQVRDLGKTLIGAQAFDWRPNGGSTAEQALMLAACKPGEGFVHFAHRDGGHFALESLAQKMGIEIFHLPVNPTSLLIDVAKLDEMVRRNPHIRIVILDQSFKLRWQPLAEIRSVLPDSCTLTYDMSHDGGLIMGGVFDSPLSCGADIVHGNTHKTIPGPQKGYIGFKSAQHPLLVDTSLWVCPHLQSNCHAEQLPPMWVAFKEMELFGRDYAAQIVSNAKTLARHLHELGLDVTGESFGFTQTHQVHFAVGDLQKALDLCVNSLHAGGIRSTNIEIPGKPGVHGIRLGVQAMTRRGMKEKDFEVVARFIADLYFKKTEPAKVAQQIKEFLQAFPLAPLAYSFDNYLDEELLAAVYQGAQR
Experiment: UV-vis titration of quinonoid at […] nm
Type: binding

## CC=O [acetaldehyde]
  Kd: 430 ± 15 µM
